Test results taken from patent US11028072B2, “2,4-diamino-6-ethylpyrimidine derivatives with antimalarial activities against Plasmodium falciparum” (National Science and Technology Development Agency, priority 2015, dated 2021).
Structures can show the parent of a compound that is named as a salt. Where two headings read alike, the source gives them in different places.

Assays:
[1] = tested on: P. falciparum TM4/8.2 (wild type); experiment: microbe, parasite or virus in culture; format: cell-based, Plasmodium falciparum; settings: Plasmodium falciparum, read-out: IC50 P. falciparum TM4/8.2 (WT)
Source text: (§1) In Vitro Antimalarial Activites Against P. falciparum and Cytotoxicity Towards Mammalian Cells (Vero Cells)

[2] = tested on: P. falciparum V1/S (N51I + C59R + S108 + I164L); experiment: microbe, parasite or virus in culture; format: cell-based, Plasmodium falciparum; settings: Plasmodium falciparum, read-out: IC50 P. falciparum V1/S
Source text: as §1

[3] = target: T1, Human dihydrofolate reductase (hDHFR) (Homo sapiens, UniProt P00374); experiment: Inhibition of human dihydrofolate reductase (Ki); format: biochemical; settings: human DHFR; hydrochloride salts
T1 sequence (P00374 1-187): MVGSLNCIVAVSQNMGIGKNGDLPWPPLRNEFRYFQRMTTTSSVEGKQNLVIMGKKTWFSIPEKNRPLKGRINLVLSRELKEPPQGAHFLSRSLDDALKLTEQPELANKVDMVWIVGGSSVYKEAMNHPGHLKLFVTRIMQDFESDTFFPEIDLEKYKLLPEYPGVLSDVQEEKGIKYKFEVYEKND

[4] = target: wild type (WT) pfDHFR (Plasmodium falciparum, UniProt P13922, N108S/R59C); experiment: Inhibition of wild type pfDHFR (Ki); format: biochemical
Procedure: (§2) The synthesized 2,4-diamino-6-ethylpyrimdine derivatives as the hydrochloride salts were tested for the activities against Plasmodium falciparum (P. falciparum) according to the standard methods. These include the inhibition of dihydrofolate reductase (DHFR) enzymes of P. falciparum including, wild type (WT) and quadruple mutants (N51IC59RS108NI164L) (QM). The inhibition was expressed as inhibition constants (Ki) in nano molar (nM).

[5] = target: quadruple mutant N51I + C59R + S108N + I164L (QM) pfDHFR (Plasmodium falciparum, UniProt P13922, I164L/N51I); experiment: Inhibition of quadruple mutant pfDHFR (Ki); format: biochemical
Procedure: as §2

[6] = in vitro; settings: African green monkey
Source text: as §1

[7] = in vitro, wild-type strain TM4/8.2
[8] = in vitro, quadruple mutant strain V1/S

Sequence of quadruple mutant N51I + C59R + S108N + I164L (QM) pfDHFR (P13922 whole entry N51I/I164L): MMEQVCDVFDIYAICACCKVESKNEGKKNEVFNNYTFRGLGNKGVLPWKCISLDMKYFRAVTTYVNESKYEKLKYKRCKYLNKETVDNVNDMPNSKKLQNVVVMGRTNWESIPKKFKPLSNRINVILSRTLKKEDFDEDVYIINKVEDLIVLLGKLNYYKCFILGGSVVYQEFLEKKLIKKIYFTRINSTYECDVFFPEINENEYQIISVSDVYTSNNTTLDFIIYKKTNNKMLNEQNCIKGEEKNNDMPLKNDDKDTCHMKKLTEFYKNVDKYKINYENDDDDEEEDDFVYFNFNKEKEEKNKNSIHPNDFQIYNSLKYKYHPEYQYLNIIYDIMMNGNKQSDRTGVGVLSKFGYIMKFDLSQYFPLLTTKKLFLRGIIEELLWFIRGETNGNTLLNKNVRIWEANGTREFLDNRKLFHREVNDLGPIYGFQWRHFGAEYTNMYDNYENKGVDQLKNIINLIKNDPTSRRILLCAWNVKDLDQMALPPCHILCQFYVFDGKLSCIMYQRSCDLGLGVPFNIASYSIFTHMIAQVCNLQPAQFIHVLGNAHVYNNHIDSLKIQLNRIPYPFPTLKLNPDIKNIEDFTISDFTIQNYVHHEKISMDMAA
Sequence of wild type (WT) pfDHFR (P13922 whole entry R59C/N108S): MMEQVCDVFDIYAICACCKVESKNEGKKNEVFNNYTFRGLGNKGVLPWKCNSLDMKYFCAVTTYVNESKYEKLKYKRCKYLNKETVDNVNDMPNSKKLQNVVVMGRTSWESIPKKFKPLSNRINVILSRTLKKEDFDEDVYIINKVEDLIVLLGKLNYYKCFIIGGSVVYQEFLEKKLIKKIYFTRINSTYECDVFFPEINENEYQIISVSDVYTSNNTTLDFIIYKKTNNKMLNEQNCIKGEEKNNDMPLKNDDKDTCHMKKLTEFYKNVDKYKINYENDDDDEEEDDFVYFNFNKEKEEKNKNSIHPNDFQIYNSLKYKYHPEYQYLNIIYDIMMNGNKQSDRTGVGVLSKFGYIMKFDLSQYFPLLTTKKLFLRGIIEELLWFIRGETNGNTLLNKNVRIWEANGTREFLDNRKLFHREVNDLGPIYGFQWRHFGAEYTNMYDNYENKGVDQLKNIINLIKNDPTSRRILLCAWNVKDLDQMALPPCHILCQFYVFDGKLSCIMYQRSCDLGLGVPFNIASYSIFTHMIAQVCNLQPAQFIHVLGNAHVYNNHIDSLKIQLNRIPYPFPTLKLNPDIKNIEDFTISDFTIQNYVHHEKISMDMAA

Q: With `CCc1nc(N)nc(N)c1OCc1coc(-c2ccc(Cl)cc2)n1` (as salt: hydrochloride) [Compound 55] as the compound, how does the melting point read?
A: The melting point was 239 to 240 °C.

Q: With `CCc1nc(N)nc(N)c1OCCc1coc(-c2ccccc2)n1` (as salt: hydrochloride) [Compound 58] as the compound, how does the melting point read?
A: Its melting point is 254.5 to 255.5 °C.

Q: Which melting point does the source give for `CCc1nc(N)nc(N)c1OCCc1coc(-c2ccc(C(=O)O)cc2)n1` (as salt: hydrochloride) [Compound 59] here?
A: Its melting point is 330 to 332 °C.

Q: For `CCc1nc(N)nc(N)c1OCc1csc(-c2ccccc2)n1` (as salt: hydrochloride) [Compound 60], which melting point is on record?
A: Its melting point is 220 to 222 °C.

Q: With `CCc1nc(N)nc(N)c1OCc1csc(-c2cccc(C)c2)n1` (as salt: hydrochloride) [Compound 61] as the compound, how does the melting point read?
A: Its melting point is 232 to 233 °C.

Q: With `CCc1nc(N)nc(N)c1OCc1csc(-c2cccc([N+](=O)[O-])c2)n1` (as salt: hydrochloride) [Compound 62] as the compound, how does the melting point read?
A: Its melting point is 235 to 236.5 °C.

Q: With `CCc1nc(N)nc(N)c1OCc1csc(-c2cccc(C(=O)OC)c2)n1` (as salt: hydrochloride) [Compound 65] as the compound, how does the melting point read?
A: The melting point was 224.5 to 226.5 °C.

Q: For `CCc1nc(N)nc(N)c1OCc1csc(-c2ccc(C)cc2)n1` (as salt: hydrochloride) [Compound 67], which melting point is on record?
A: Its melting point is 235 to 236 °C.

Q: For `CCc1nc(N)nc(N)c1OCc1csc(-c2ccc(OC)cc2)n1` (as salt: hydrochloride) [Compound 68], which melting point is on record?
A: The melting point was 228 to 229 °C.

Q: For `CCc1nc(N)nc(N)c1OCc1csc(-c2ccc(F)cc2)n1` (as salt: hydrochloride) [Compound 69], which melting point is on record?
A: The melting point was 226 to 227 °C.

Q: Which melting point does the source give for `CCc1nc(N)nc(N)c1OCc1csc(-c2ccc(Cl)cc2)n1` (as salt: hydrochloride) [Compound 70] here?
A: Its melting point is 230 to 232 °C.

Q: For `CCc1nc(N)nc(N)c1OCc1csc(-c2ccc(Br)cc2)n1` (as salt: hydrochloride) [Compound 71], which melting point is on record?
A: Its melting point is 236 to 238 °C.

Q: For `CCc1nc(N)nc(N)c1OCc1csc(-c2ccc(C(=O)OC)cc2)n1` (as salt: hydrochloride) [Compound 74], which melting point is on record?
A: Its melting point is 217 to 219 °C.

Q: Which melting point does the source give for `CCc1nc(N)nc(N)c1OCc1csc(-c2ccc(C(=O)O)cc2)n1` (as salt: hydrochloride) [Compound 75] here?
A: The melting point was 213 to 214 °C.

Q: For `CCc1nc(N)nc(N)c1OCCc1csc(-c2ccccc2)n1` (as salt: hydrochloride) [Compound 76], which melting point is on record?
A: Its melting point is 215 to 217 °C.

Q: What does the source list for `CCc1nc(N)nc(N)c1-c1cn(-c2ccccc2)nn1` [Compound 1]?
A: IC50 [1, 7]: > 50 µM; IC50 [2, 8]: > 50 µM; Ki hDHFR [3]: High; Ki [4]: 0.0497 ± 0.00418 µM; Ki [5]: 6.02 ± 0.772 µM; IC50 [6]: > 50 µM

Q: What does the source list for `CCc1nc(N)nc(N)c1-c1cn(Cc2ccccc2)nn1` [Compound 3]?
A: IC50 [1]: 3.57 ± 1.25 µM; IC50 [2]: 19.9 ± 7.03 µM; Ki [3]: 3.14 ± 0.242 µM; Ki [4]: 0.0114 ± 0.00081 µM; Ki [5]: 0.0139 ± 0.00198 µM; IC50 [6]: > 50 µM

Q: For `CCc1nc(N)nc(N)c1-c1cn(Cc2ccc(C(=O)OC)cc2)nn1` [Compound 4], which IC50 [1] is on record?
A: The IC50 was 5.53 ± 0.84 µM.

Q: What about the IC50 [2] of the same compound?
A: Its IC50 is > 25 µM.

Q: And the Ki [3]?
A: The Ki was 0.555 ± 0.0201 µM.

Q: What about the Ki [4] of the same compound?
A: The Ki was 0.0033 ± 0.00036 µM.

Q: What about the Ki [5] of the same compound?
A: The Ki was 0.0052 ± 0.00062 µM.

Q: And the IC50 [6]?
A: The IC50 was > 25 µM.

Q: What does the source list for `CCc1nc(N)nc(N)c1-c1cn(Cc2ccc(C(=O)O)cc2)nn1` [Compound 5]?
A: IC50 [1, 7]: 7.95 ± 1.38 µM; IC50 [2, 8]: > 10 µM; Ki [3]: 0.196 ± 0.0207 µM; Ki [4]: 0.00631 ± 0.0004 µM; Ki [5]: 0.00761 ± 0.00066 µM; IC50 [6]: > 10 µM

Q: Which IC50 [1, 7] does the source give for `CCc1nc(N)nc(N)c1-c1cn(Cc2ccc(OC(=O)N(c3ccccc3)c3ccccc3)cc2)nn1` [Compound 6] here?
A: Its IC50 is 5.59 ± 1.54 µM.

Q: What about the IC50 [2, 8] of the same compound?
A: Its IC50 is 4.31 ± 0.93 µM.

Q: What about the “Ki hDHFR” value [3] of the same compound?
A: Its value is “High”.

Q: And the Ki [4]?
A: The Ki was 0.0103 ± 0.00169 µM.

Q: What about the Ki [5] of the same compound?
A: The Ki was 0.0175 ± 0.00219 µM.

Q: And the IC50 [6]?
A: Its IC50 is > 25 µM.

Q: With `CCc1nc(N)nc(N)c1-c1cn(CCc2ccccc2)nn1` [Compound 7] as the compound, how does the IC50 [1] read?
A: Its IC50 is 2.62 ± 0.33 µM.

Q: What about the IC50 [2] of the same compound?
A: Its IC50 is > 50 µM.

Q: What about the Ki [3] of the same compound?
A: The Ki was 3.22 ± 0.0862 µM.

Q: And the Ki [4]?
A: The Ki was 0.00224 ± 0.0001 µM.

Q: And the Ki [5]?
A: Its Ki is 0.0701 ± 0.00692 µM.

Q: And the IC50 [6]?
A: The IC50 was > 50 µM.
